In the assay the test system is MV-4-11 cells. In words: Gene expression microarray analysis (Affymetrix PrimeView) and GSEA. It counts as cell-based, human. On the set-up: RFU PODN (11730768_x_at) / Fold change /veh PODN (11730768_x_at) / RFU LINC00158 (11744669_a_at) / Fold change /veh LINC00158 (11744669_a_at) / RFU DUSP10 (11751237_a_at) / Fold change /veh DUSP10 (11751237_a_at) / RFU ID3 (11757404_x_at) / Fold change /veh ID3 (11757404_x_at) / RFU PLEKHG5 (11737974_s_at) / Fold change /veh PLEKHG5 (11737974_s_at) / RFU LRRC4B (11730491_at) / Fold change /veh LRRC4B (11730491_at) / RFU GIMAP4 (11747438_a_at) / Fold change /veh GIMAP4 (11747438_a_at) / RFU KRT8 (11758183_x_at) / Fold change /veh KRT8 (11758183_x_at) / RFU CNN1 (11734310_a_at) / Fold change /veh CNN1 (11734310_a_at) / RFU VPS37D (11726825_at) / Fold change /veh VPS37D (11726825_at) / RFU C10orf10 (11716522_x_at) / Fold change /veh C10orf10 (11716522_x_at) / RFU KIR2DL2 /// KIR2DL4 /// KIR2DL5A /// KIR2DL5B /// KIR2DS1 /// KIR2DS2 /// KIR2DS3 /// KIR2DS4 /// KIR3DL3 /// KIR3DL3 /// KIR3DS1 (11738374_at) / Fold change /veh KIR2DL2 /// KIR2DL4 /// KIR2DL5A /// KIR2DL5B /// KIR2DS1 /// KIR2DS2 /// KIR2DS3 /// KIR2DS4 /// KIR3DL3 /// KIR3DL3 /// KIR3DS1 (11738374_at) / RFU C1QL1 (11718748_at) / Fold change /veh C1QL1 (11718748_at) / RFU TMPRSS4 (11747572_a_at) / Fold change /veh TMPRSS4 (11747572_a_at) / RFU HAMP (11756126_x_at) / Fold change /veh HAMP (11756126_x_at) / RFU RNFT2 (11725882_a_at) / Fold change /veh RNFT2 (11725882_a_at) / RFU NR4A2 (11747474_a_at) / Fold change /veh NR4A2 (11747474_a_at) / RFU ABCC12 (11746883_a_at) / Fold change /veh ABCC12 (11746883_a_at) / RFU TMEM136 (11760407_x_at) / Fold change /veh TMEM136 (11760407_x_at) / RFU CLDN22 /// WWC2 (11732394_at) / Fold change /veh CLDN22 /// WWC2 (11732394_at) / RFU HLA-DPB1 (11760878_x_at) / Fold change /veh HLA-DPB1 (11760878_x_at) / RFU SPINT1 (11716480_a_at) / Fold change /veh SPINT1 (11716480_a_at) / RFU GAP43 (11754022_s_at) / Fold change /veh GAP43 (11754022_s_at) / RFU A4GNT (11735810_at) / Fold change /veh A4GNT (11735810_at) / RFU PRB3 (11715151_x_at) / Fold change /veh PRB3 (11715151_x_at) / RFU TUBB4B (11761932_at) / Fold change /veh TUBB4B (11761932_at) / RFU CAPN14 (11732068_a_at) / Fold change /veh CAPN14 (11732068_a_at) / RFU TMCC2 (11721928_a_at) / Fold change /veh TMCC2 (11721928_a_at) / RFU IRGQ (11745062_a_at) / Fold change /veh IRGQ (11745062_a_at) / RFU FAM174B (11720279_a_at) / Fold change /veh FAM174B (11720279_a_at) / RFU TMPRSS4 (11748680_a_at) / Fold change /veh TMPRSS4 (11748680_a_at) / RFU FAM212B (11763350_a_at) / Fold change /veh FAM212B (11763350_a_at) / RFU PLEKHG5 (11743358_a_at) / Fold change /veh PLEKHG5 (11743358_a_at) / RFU ZSCAN30 (11745921_a_at) / Fold change /veh ZSCAN30 (11745921_a_at) / RFU CMKLR1 (11741424_a_at) / Fold change /veh CMKLR1 (11741424_a_at) / RFU LOC101060620 /// MAPK8IP1 (11723275_at) / Fold change /veh LOC101060620 /// MAPK8IP1 (11723275_at) / RFU SPTSSB (11747773_x_at) / Fold change /veh SPTSSB (11747773_x_at) / RFU PRSS12 (11739890_at) / Fold change /veh PRSS12 (11739890_at) / RFU BIN1 (11741810_x_at) / Fold change /veh BIN1 (11741810_x_at) / RFU WNT11 (11732464_a_at) / Fold change /veh WNT11 (11732464_a_at) / RFU C10orf10 (11716521_a_at) / Fold change /veh C10orf10 (11716521_a_at) / RFU C5orf56 (11738089_at) / Fold change /veh C5orf56 (11738089_at) / RFU CYB561 (11721691_x_at) / Fold change /veh CYB561 (11721691_x_at) / RFU ANKRD19P (11752326_a_at) / Fold change /veh ANKRD19P (11752326_a_at) / RFU OR2T12 /// OR2T33 /// OR2T8 (11738714_s_at) / Fold change /veh OR2T12 /// OR2T33 /// OR2T8 (11738714_s_at) / RFU VCAN (11748164_a_at) / Fold change /veh VCAN (11748164_a_at) / RFU JSRP1 (11732532_at) / Fold change /veh JSRP1 (11732532_at) / RFU KRTAP10-11 (11738290_x_at) / Fold change /veh KRTAP10-11 (11738290_x_at) / RFU MYO3A (11730013_a_at) / Fold change /veh MYO3A (11730013_a_at) / RFU EBF3 (11725865_a_at) / Fold change /veh EBF3 (11725865_a_at) / RFU CAMK2N1 (11719241_x_at) / Fold change /veh CAMK2N1 (11719241_x_at) / RFU C5orf56 (11738088_a_at) / Fold change /veh C5orf56 (11738088_a_at) / RFU OLFML3 (11715873_a_at) / Fold change /veh OLFML3 (11715873_a_at) / RFU LOC100653217 /// NTM (11731650_a_at) / Fold change /veh LOC100653217 /// NTM (11731650_a_at) / RFU MAPK11 (11762145_a_at) / Fold change /veh MAPK11 (11762145_a_at) / RFU FIZ1 (11724087_x_at) / Fold change /veh FIZ1 (11724087_x_at) / RFU OASL (11726364_x_at) / Fold change /veh OASL (11726364_x_at) / RFU SOX15 (11748057_x_at) / Fold change /veh SOX15 (11748057_x_at) / RFU CD79A (11719716_a_at) / Fold change /veh CD79A (11719716_a_at) / RFU HIST1H1D (11736915_at) / Fold change /veh HIST1H1D (11736915_at) / RFU CASKIN2 (11723855_a_at) / Fold change /veh CASKIN2 (11723855_a_at) / RFU LOC730098 (11760151_x_at) / Fold change /veh LOC730098 (11760151_x_at) / RFU OR4N2 (11742367_at) / Fold change /veh OR4N2 (11742367_at) / RFU PRRT2 (11749266_a_at) / Fold change /veh PRRT2 (11749266_a_at) / RFU SNX32 (11753110_a_at) / Fold change /veh SNX32 (11753110_a_at) / RFU CDHR5 (11726645_a_at) / Fold change /veh CDHR5 (11726645_a_at) / RFU RCAN1 (11760418_a_at) / Fold change /veh RCAN1 (11760418_a_at) / RFU FAM167A (11723789_a_at) / Fold change /veh FAM167A (11723789_a_at) / RFU FAM26E (11764081_at) / Fold change /veh FAM26E (11764081_at) / RFU ISYNA1 (11749810_s_at) / Fold change /veh ISYNA1 (11749810_s_at) / RFU ACY1 (11761880_at) / Fold change /veh ACY1 (11761880_at) / RFU 11764098_at / Fold change /veh 11764098_at / RFU SAMD14 (11745864_x_at) / Fold change /veh SAMD14 (11745864_x_at) / RFU NPB (11741838_a_at) / Fold change /veh NPB (11741838_a_at) / RFU TMPRSS6 (11731388_a_at) / Fold change /veh TMPRSS6 (11731388_a_at) / RFU KRTAP10-2 (11738614_at) / Fold change /veh KRTAP10-2 (11738614_at) / RFU ARHGAP8 /// PRR5-ARHGAP8 (11727945_x_at) / Fold change /veh ARHGAP8 /// PRR5-ARHGAP8 (11727945_x_at) / RFU KRTAP5-7 /// NADSYN1 (11734609_at) / Fold change /veh KRTAP5-7 /// NADSYN1 (11734609_at) / RFU RASL12 (11751679_a_at) / Fold change /veh RASL12 (11751679_a_at) / RFU CDKN2B (11736163_a_at) / Fold change /veh CDKN2B (11736163_a_at) / RFU PRF1 (11729649_at) / Fold change /veh PRF1 (11729649_at) / RFU, ZNF638 /// ZNF638-IT1 / Fold change vs veh, ZNF638 /// ZNF638-IT1 / RFU, PANK3 / Fold change vs veh, PANK3 / RFU, SH3YL1 / Fold change vs veh, SH3YL1 / RFU, ZEB2 / Fold change vs veh, ZEB2 / RFU, NRIP1 / Fold change vs veh, NRIP1 / RFU, PTTG1IP / Fold change vs veh, PTTG1IP / RFU, CAPN2 / Fold change vs veh, CAPN2 / RFU, MED14 / Fold change vs veh, MED14 / RFU, SNORA58 / Fold change vs veh, SNORA58 / RFU, C1orf63 / Fold change vs veh, C1orf63 / RFU, LRRFIP1 / Fold change vs veh, LRRFIP1 / RFU, NDUFAF7 / Fold change vs veh, NDUFAF7 / RFU, SLC12A2 / Fold change vs veh, SLC12A2 / RFU, IBTK / Fold change vs veh, IBTK / RFU, ESF1 / Fold change vs veh, ESF1 / Fold change vs veh, TMEM50B / RFU, TAOK1 / Fold change vs veh, TAOK1 / RFU, ACBD3 / Fold change vs veh, ACBD3 / RFU, TMA16 / Fold change vs veh, TMA16 / RFU, RWDD3 / Fold change vs veh, RWDD3 / RFU, BCAT1 / Fold change vs veh, BCAT1 / RFU, EDEM3 / Fold change vs veh, EDEM3 / RFU, TMEM33 / Fold change vs veh, TMEM33 / RFU, WDR75 / Fold change vs veh, WDR75 / RFU, AHCTF1 / Fold change vs veh, AHCTF1 / RFU, TFRC / Fold change vs veh, TFRC / RFU, ZDHHC17 / Fold change vs veh, ZDHHC17 / RFU, NOM1 / Fold change vs veh, NOM1 / RFU, ARL8B / Fold change vs veh, ARL8B / RFU, ZBTB11 / Fold change vs veh, ZBTB11 / RFU, TAMM41 / Fold change vs veh, TAMM41 / RFU, KIAA1704 /// LOC100996395 / Fold change vs veh, KIAA1704 /// LOC100996395 / RFU, ING1 / Fold change vs veh, ING1 / RFU, TRMT61B / Fold change vs veh, TRMT61B / RFU, FUBP3 / Fold change vs veh, FUBP3 / RFU, TP53 / Fold change vs veh, TP53 / RFU, TNKS2 / Fold change vs veh, TNKS2 / RFU, ZFP14 / Fold change vs veh, ZFP14 / RFU, ACTR2 / Fold change vs veh, ACTR2 / RFU, PPP3R1 / Fold change vs veh, PPP3R1 / RFU, PIK3R1 / Fold change vs veh, PIK3R1 / RFU, HNRNPA1 / Fold change vs veh, HNRNPA1 / RFU, RNF170 / Fold change vs veh, RNF170 / RFU, ZNF28 / Fold change vs veh, ZNF28 / RFU, RNGTT / Fold change vs veh, RNGTT / RFU, OGT / Fold change vs veh, OGT / RFU, BRD1 / Fold change vs veh, BRD1 / RFU, MARS / Fold change vs veh, MARS / RFU, ZNF655 / Fold change vs veh, ZNF655 / RFU, FAHD1 / Fold change vs veh, FAHD1 / RFU, BDP1 / Fold change vs veh, BDP1 / RFU, LRRCC1 / Fold change vs veh, LRRCC1 / RFU, ARID1A / Fold change vs veh, ARID1A / RFU, ZNF146 / Fold change vs veh, ZNF146 / RFU, ZNF330 / Fold change vs veh, ZNF330 / RFU, GPN3 / Fold change vs veh, GPN3 / RFU, C9orf123 / Fold change vs veh, C9orf123 / RFU, N4BP2L2 / Fold change vs veh, N4BP2L2 / RFU, ARFIP1 / Fold change vs veh, ARFIP1 / RFU, FAM179B / Fold change vs veh, FAM179B / RFU, BCL10 / Fold change vs veh, BCL10 / RFU, UHRF1BP1L / Fold change vs veh, UHRF1BP1L / RFU, BET1 / Fold change vs veh, BET1 / RFU, CNOT2 / Fold change vs veh, CNOT2 / RFU, ZNF268 / Fold change vs veh, ZNF268 / Fold change vs veh, ZNF507 / RFU, DGCR2 / Fold change vs veh, DGCR2 / RFU, WDSUB1 / Fold change vs veh, WDSUB1 / Fold change vs veh, HSP90B1 /// MIR3652 / RFU, ADSS / Fold change vs veh, ADSS / RFU, GK / Fold change vs veh, GK / RFU, ZNF148 / Fold change vs veh, ZNF148 / RFU, TAF9 / Fold change vs veh, TAF9 / RFU, SLC1A5 / Fold change vs veh, SLC1A5 / RFU, SLMO2 / Fold change vs veh, SLMO2 / RFU, ABCC4 / Fold change vs veh, ABCC4 / RFU, LOC101060439 /// RAP1B / Fold change vs veh, LOC101060439 /// RAP1B / RFU, RFX7 / Fold change vs veh, RFX7 / RFU, GTPBP10 / Fold change vs veh, GTPBP10 / RFU, CNEP1R1 / Fold change vs veh, CNEP1R1 / RFU, BIVM-ERCC5 /// ERCC5 / Fold change vs veh, BIVM-ERCC5 /// ERCC5 / RFU, ILF3 / Fold change vs veh, ILF3 / RFU 11762660_at / Fold change /veh 11762660_at / RFU VCAN (11757783_s_at) / Fold change /veh VCAN (11757783_s_at) / RFU DDX43 (11728927_at) / Fold change /veh DDX43 (11728927_at) / RFU KRT8 (11758188_x_at) / Fold change /veh KRT8 (11758188_x_at) / RFU NKD1 (11759106_at) / Fold change /veh NKD1 (11759106_at) / RFU SRD5A1 (11742802_a_at) / Fold change /veh SRD5A1 (11742802_a_at) / RFU TPSAB1 /// TPSB2 (11721975_s_at) / Fold change /veh TPSAB1 /// TPSB2 (11721975_s_at) / RFU GSTM3 (11746129_a_at) / Fold change /veh GSTM3 (11746129_a_at) / RFU IL23R (11737362_x_at) / Fold change /veh IL23R (11737362_x_at) / RFU TMEM51 (11727254_a_at) / Fold change /veh TMEM51 (11727254_a_at) / RFU PIWIL2 (11732686_x_at) / Fold change /veh PIWIL2 (11732686_x_at) / RFU ORM1 (11744905_x_at) / Fold change /veh ORM1 (11744905_x_at) / RFU CCDC152 (11743942_at) / Fold change /veh CCDC152 (11743942_at) / RFU ECM1 (11717891_a_at) / Fold change /veh ECM1 (11717891_a_at) / RFU IL23R (11748794_a_at) / Fold change /veh IL23R (11748794_a_at) / RFU TNFAIP8L3 (11732012_x_at) / Fold change /veh TNFAIP8L3 (11732012_x_at) / RFU MBOAT4 (11741988_at) / Fold change /veh MBOAT4 (11741988_at) / RFU 11764193_at / Fold change /veh 11764193_at / RFU TMEM53 (11763286_at) / Fold change /veh TMEM53 (11763286_at) / RFU MAGEB2 (11727129_at) / Fold change /veh MAGEB2 (11727129_at) / RFU TMEM200A (11744735_a_at) / Fold change /veh TMEM200A (11744735_a_at) / RFU CCDC152 (11751479_a_at) / Fold change /veh CCDC152 (11751479_a_at) / RFU FAM211A (11726209_a_at) / Fold change /veh FAM211A (11726209_a_at) / RFU RGS16 (11746705_a_at) / Fold change /veh RGS16 (11746705_a_at) / RFU VCAN (11755009_s_at) / Fold change /veh VCAN (11755009_s_at) / RFU RHOB (11743442_s_at) / Fold change /veh RHOB (11743442_s_at) / RFU RGS16 (11720943_a_at) / Fold change /veh RGS16 (11720943_a_at) / RFU RGS16 (11720944_at) / Fold change /veh RGS16 (11720944_at) / RFU, VPS4B / Fold change vs veh, VPS4B / RFU, CREB1 / Fold change vs veh, CREB1 / RFU, DNAJC13 / Fold change vs veh, DNAJC13 / RFU, GNAQ / Fold change vs veh, GNAQ / RFU, CDK5R1 / Fold change vs veh, CDK5R1 / RFU, ZRANB3 / Fold change vs veh, ZRANB3 / RFU, CUL4A / Fold change vs veh, CUL4A / RFU, CCNY / Fold change vs veh, CCNY / RFU, UFL1 / Fold change vs veh, UFL1 / RFU, COG3 / Fold change vs veh, COG3 / RFU, DIAPH2 / Fold change vs veh, DIAPH2 / RFU, SKA2 / Fold change vs veh, SKA2 / RFU, AFF3 / Fold change vs veh, AFF3 / RFU, LMF1 / Fold change vs veh, LMF1 / RFU, IPO11 / Fold change vs veh, IPO11 / RFU, DFFB / Fold change vs veh, DFFB / RFU, FOXP1 / Fold change vs veh, FOXP1 / RFU, CARD8 / Fold change vs veh, CARD8 / RFU, STRN3 / Fold change vs veh, STRN3 / RFU, ADK / Fold change vs veh, ADK / RFU, RASSF2 / Fold change vs veh, RASSF2 / RFU, WIPF1 / Fold change vs veh, WIPF1 / RFU, LARP1B / Fold change vs veh, LARP1B / RFU, RASA1 / Fold change vs veh, RASA1 / RFU, RB1 / Fold change vs veh, RB1 / RFU, PPFIA1 / Fold change vs veh, PPFIA1 / RFU, MAT2A / Fold change vs veh, MAT2A / RFU, CCT5 / Fold change vs veh, CCT5 / RFU, WDR92 / Fold change vs veh, WDR92 / RFU, CUX1 / Fold change vs veh, CUX1 / RFU, TTC7A / Fold change vs veh, TTC7A / RFU, TMEM135 / Fold change vs veh, TMEM135 / RFU, DEPTOR / Fold change vs veh, DEPTOR / RFU, CPM / Fold change vs veh, CPM / RFU, DNAJB6 / Fold change vs veh, DNAJB6 / RFU, CACNA2D3 / Fold change vs veh, CACNA2D3 / RFU, DTX4 / Fold change vs veh, DTX4 / RFU, TFCP2 / Fold change vs veh, TFCP2 / RFU, GMCL1 /// GMCL1P1 / Fold change vs veh, GMCL1 /// GMCL1P1 / RFU, AEBP2 / Fold change vs veh, AEBP2 / RFU, SNHG1 /// SNORD22 /// SNORD25 /// SNORD26 /// SNORD27 /// SNORD28 /// SNORD29 /// SNORD31 / Fold change vs veh, SNHG1 /// SNORD22 /// SNORD25 /// SNORD26 /// SNORD27 /// SNORD28 /// SNORD29 /// SNORD31 / Fold change (Aza/veh), C12orf56 (ProbeSet 11735607_a_at) / Fold change (ACY-1035/veh), C12orf56 (ProbeSet 11735607_a_at) / Fold change (Aza/veh), FGFR1OP (ProbeSet 11751329_s_at) / Fold change (ACY-1035/veh), FGFR1OP (ProbeSet 11751329_s_at) / Fold change (Aza/veh), VPS36 (ProbeSet 11739960_a_at) / Fold change (ACY-1035/veh), VPS36 (ProbeSet 11739960_a_at) / RFU SYPL1 (11715823_x_at) / Fold change /veh SYPL1 (11715823_x_at) / RFU IGFBP7 (11715501_s_at) / Fold change /veh IGFBP7 (11715501_s_at) / RFU REEP3 (11722064_at) / Fold change /veh REEP3 (11722064_at) / RFU IGLL1 (11728026_x_at) / Fold change /veh IGLL1 (11728026_x_at): dose or concentration left out as unconfirmed. The note with it: MV-4-11 cells, 48 hours.

The source of these data is PMC5218480 (PLoS ONE, 2017).

As to `Nc1ccc(-c2cccs2)cc1NC(=O)c1ccc2c(c1)cc(C1CC1)n2CCN1CCOCC1` [ACY-1035], the “Fold change /veh VCAN (11757783_s_at)” value was 1.01.
